# Source: patent US20240010684A1, “MASP INHIBITORY COMPOUNDS AND USES THEREOF” (BAYER AKTIENGESELLSCHAFT, priority 2020, published 2024)
# Where a SMILES comes first, the peptide text is derived from it. Bridges are numbered along the chain shown (N, C = ends). [ ]: non-standard residue; d: D form. tBuAla = CC(C)(C)C[C@H](N)C(=O)O; Pen = CC(C)(S)[C@H](N)C(=O)O; Ahx = NCCCCCC(=O)O
# Experiments:
# [1] = system: Human C3-DEPOSITION SERUM; assay: C3 deposition assay, human serum on mannan-coated plates; format: biochemical; settings: Average IC50, read-out: Human C3-DEPOSITION SERUM IC50
# Method in brief: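 Plates coated overnight at 4° C with S. cerevisiae mannan (10 μg/mL, pH 9.6), blocked with 1% BSA in TBS 2 h at 37° C; washes in TBS/0.05% Tween 20/5 mM CaCl2. Antibodies diluted in wash buffer with 0.5% BSA. Colorimetric read-out at 450 nm.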
# human MASP1 = human MASP1 (Homo sapiens (Human), UniProt P48740); assay: Biochemical human MASP1 assay (FRET substrate); settings: Average IC50; recombinant human MASP1; read-out: human MASP1 IC50
# Method in brief: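 IC50 derived from % inhibition versus compound concentration, with fluorescence increase read at 320/420 nm after 60-120 min at 32 C. Enzyme: HEK293-secreted, His-tagged human MASP1 fragment 297-699 at 20 nM in HEPES pH 8,0 buffer with NaCl, CHAPS, glutathione; substrate ABZ-peptide-Lys(Dnp)-NH2 added as 20 μM solution.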
# rat MASP2 = rat MASP2 (Rattus norvegicus (Rat), UniProt Q9JJS8); assay: Biochemical rat MASP2 assay (FRET substrate); settings: Average IC50; recombinant rat MASP2; read-out: rat MASP2 IC50
# Excerpt: The MASP1 or MASP2 expression vectors were transfected into the HEK293 (ATCC No. CRL-1573) cell line using Lipofectamine LTX® Reagent (Thermo-Fischer), as described by the manufacturer. […] The MASP1 and M[…] were purified from the conditioned media by affinity chromatography on Ni-NTA Superflow resin (Qiagen) as described by the manufacturer.
# rat MASP1 = rat MASP1 (Rattus norvegicus (Rat), UniProt Q8CHN8); assay: Biochemical rat MASP1 assay (FRET substrate); settings: Average IC50; recombinant rat MASP1; read-out: rat MASP1 IC50
# human MASP2 = human MASP2 (Homo sapiens (Human), UniProt O00187); assay: Biochemical human MASP2 assay (FRET substrate); settings: Average IC50; recombinant human MASP2; read-out: human MASP2 IC50
# Method in brief: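 IC50 came from % inhibition across compound concentrations, with fluorescence (ex 340 nm, em 490 nm) read after 60-120 min at 32 C. Substrate was a DABCYL FRET peptide, added as a 60 μM solution, cleaved by HEK293-expressed, Ni-NTA-purified mature recombinant human MASP2.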
# Chain of human MASP1 (P48740 other isoform, or with tags, fused parts or gaps): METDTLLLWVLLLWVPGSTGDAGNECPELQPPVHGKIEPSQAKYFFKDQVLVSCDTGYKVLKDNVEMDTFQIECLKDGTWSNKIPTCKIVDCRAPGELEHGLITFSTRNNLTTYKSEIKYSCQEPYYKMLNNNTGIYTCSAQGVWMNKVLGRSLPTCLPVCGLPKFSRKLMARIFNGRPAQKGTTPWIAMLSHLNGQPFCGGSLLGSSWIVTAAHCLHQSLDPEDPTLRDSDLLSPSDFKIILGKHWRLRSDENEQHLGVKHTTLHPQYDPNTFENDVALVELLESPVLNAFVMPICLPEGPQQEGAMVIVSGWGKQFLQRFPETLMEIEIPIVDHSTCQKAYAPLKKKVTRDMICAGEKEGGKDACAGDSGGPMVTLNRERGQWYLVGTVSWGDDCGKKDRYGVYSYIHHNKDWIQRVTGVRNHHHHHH
# Chain of rat MASP1 (Q8CHN8 other isoform, or with tags, fused parts or gaps): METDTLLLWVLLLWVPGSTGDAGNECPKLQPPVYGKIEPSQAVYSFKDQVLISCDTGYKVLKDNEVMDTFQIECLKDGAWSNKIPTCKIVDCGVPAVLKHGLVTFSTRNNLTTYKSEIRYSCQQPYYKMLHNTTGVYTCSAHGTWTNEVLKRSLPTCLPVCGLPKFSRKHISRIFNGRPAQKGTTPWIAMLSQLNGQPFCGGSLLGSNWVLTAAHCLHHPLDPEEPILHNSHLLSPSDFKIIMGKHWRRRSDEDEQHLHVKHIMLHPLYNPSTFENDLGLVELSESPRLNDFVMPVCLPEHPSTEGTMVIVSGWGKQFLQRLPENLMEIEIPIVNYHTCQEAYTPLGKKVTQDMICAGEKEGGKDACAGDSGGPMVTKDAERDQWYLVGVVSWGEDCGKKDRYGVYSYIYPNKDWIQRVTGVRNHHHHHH
# Chain of rat MASP2 (Q9JJS8 other isoform, or with tags, fused parts or gaps): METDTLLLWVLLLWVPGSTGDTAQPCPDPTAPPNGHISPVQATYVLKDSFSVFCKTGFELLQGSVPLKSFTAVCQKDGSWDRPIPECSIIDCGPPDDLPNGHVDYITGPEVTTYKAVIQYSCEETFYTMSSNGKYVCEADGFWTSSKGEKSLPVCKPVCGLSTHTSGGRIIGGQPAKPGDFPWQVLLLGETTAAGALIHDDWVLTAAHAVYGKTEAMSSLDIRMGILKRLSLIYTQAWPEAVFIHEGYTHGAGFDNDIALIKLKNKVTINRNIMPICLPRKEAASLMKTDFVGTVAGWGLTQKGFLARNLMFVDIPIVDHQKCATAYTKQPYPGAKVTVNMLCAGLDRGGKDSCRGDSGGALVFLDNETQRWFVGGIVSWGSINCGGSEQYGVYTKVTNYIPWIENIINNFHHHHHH
# Chain of human MASP2 (O00187 other isoform, or with tags, fused parts or gaps): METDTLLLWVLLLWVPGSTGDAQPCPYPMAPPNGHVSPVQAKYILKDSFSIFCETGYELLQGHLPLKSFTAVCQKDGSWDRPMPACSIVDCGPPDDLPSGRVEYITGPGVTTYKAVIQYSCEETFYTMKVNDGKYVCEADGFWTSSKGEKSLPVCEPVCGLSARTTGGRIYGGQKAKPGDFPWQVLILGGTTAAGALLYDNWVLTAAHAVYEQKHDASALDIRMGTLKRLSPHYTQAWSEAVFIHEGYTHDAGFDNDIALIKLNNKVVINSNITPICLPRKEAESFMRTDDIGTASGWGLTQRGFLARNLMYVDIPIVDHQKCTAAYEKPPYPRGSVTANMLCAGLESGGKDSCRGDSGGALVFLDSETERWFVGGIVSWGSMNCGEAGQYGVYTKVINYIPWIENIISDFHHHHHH
IC50 [1],IC50 (human MASP1),IC50 (rat MASP2),IC50 (rat MASP1),IC50 (human MASP2),Compound
0.0445 µM,0.00675 µM,0.019 µM,0.096 µM,0.0835 µM,"CC[C@H](C)[C@@H]1NC(=O)[C@H](C)NC(=O)CCCCCNC(=O)[C@@H]2CCCN2C(=O)[C@H]([C@@H](C)CC)NC(=O)[C@H]2NC(=O)[C@H]([C@@H](C)CC)NC(=O)[C@@H]3CCCN3C(=O)[C@@H]3CCCN3C(=O)[C@H](CC(C)(C)C)NC(=O)[C@H](CO)NC(=O)[C@H](CCCNC(=N)N)NC(=O)[C@H](CO)NC(=O)[C@H](CSSC2(C)C)NC1=O [Example 53, N-{3-[(6S,9S,12S,15S,18R,21S,24S,33aS,39S,42R,45S,47aS,52aS)-21,39,45-tri[(2S)-butan-2-yl]-6-(2,2-dimethylpropyl)-9,15-bis(hydroxymethyl)-24,53,53-trimethyl-5,8,11,14,17,20,23,26,33,38,41,44,47,52-tetradecaoxopentacontahydro-1H,5H-18,42-(methanodithiomethano)tripyrrolo[2,1-c:2′,1′-o:2″,1″-r][1,4,7,10,13,16,19,22,25,28,31,34,37,40]tetradecaazacyclohexatetracontin-12-yl]propyl}guanidine] (cyclo(AICSRS[tBuAla]PPI[Pen]IP[Ahx]); disulfide 3-11)"
0.0396 µM,0.0085 µM,0.018 µM,0.18 µM,0.033 µM,"CC[C@H](C)[C@@H]1NC(=O)CN(C)C(=O)CCCCCNC(=O)[C@@H]2CCCN2C(=O)[C@H]([C@@H](C)CC)NC(=O)[C@H]2NC(=O)[C@H]([C@@H](C)CC)NC(=O)[C@@H]3CCCN3C(=O)[C@@H]3CCCN3C(=O)[C@H](CC(C)(C)C)NC(=O)[C@H](CO)NC(=O)[C@H](CCCNC(=N)N)NC(=O)[C@H](CO)NC(=O)[C@H](CSSC2(C)C)NC1=O [Example 54, N-{3-[(6S,9S,12S,15S,18R,21S,33aS,39S,42R,45S,47aS,52aS)-21,39,45-tri[(2S)-butan-2-yl]-6-(2,2-dimethylpropyl)-9,15-bis(hydroxymethyl)-25,53,53-trimethyl-5,8,11,14,17,20,23,26,33,38,41,44,47,52-tetradecaoxopentacontahydro-1H,5H-18,42-(methanodithiomethano)tripyrrolo[2,1-c:2′,1′-o:2″,1″-r][1,4,7,10,13,16,19,22,25,28,31,34,37,40]tetradecaazacyclohexatetracontin-12-yl]propyl}guanidine]"
